Assay results taken from patent US20030215462A1, “Use of UGT inhibitors to increase bioavailability” (priority 2001, published 2003).
“And” between values parts separate entries of the source, which are not always exact repeats. Equal entries are not always repeated.

Tests used:
[1] = tested on: T1, UGT enzymes of human liver microsomes; assay: Inhibition of 7-HFC glucuronidation in human liver microsomes; format: biochemical; settings: for % of control metabolism (SD, n = 3), 7-HFC glucuronidation: 7-HFC 50 μM, human liver microsomes 100 μg/ml, 15 min
T1 construct: percentage of control metabolism, 7-HFC glucuronidation; percentage of control metabolism, 7-HFC glucuronidation

[2] = tested on: T1, UGT enzymes of human liver microsomes; assay: Kinetic and Ki studies of inhibitors of 7-HFC glucuronidation in human liver microsomes; format: biochemical; settings: 7-HFC 20-500 μM
[3] = tested on: UGT enzymes of pooled human jejunum microsomes; assay: Inhibition of raloxifene glucuronidation (G1, G2) in pooled human jejunum microsomes; format: biochemical; settings: jejunum HJ61; inhibitor 50 μM
Procedure: Compounds were eluted using a binary solvent gradient system. […] Solvent B was methanol. […] Detection was at 280 nm.
Standardized incubations utilized […] microsomal protein, 1 mM UDPGA and a 30 min incubation time.

[4] = tested on: T2, UGT enzymes of human liver microsomes; assay: Inhibition of labetalol glucuronidation (LG1, LG2) in human liver microsomes; format: biochemical; settings: labetalol 50 μM
T2 construct: residual metabolism (percentage of control), labetalol LG1; other: labetalol 50 μM; residual metabolism (percentage of control), labetalol LG1; residual metabolism (percentage of control), labetalol LG2; inhi
Procedure: Supernatants were analyzed by HPLC with fluorescence detection.
Compounds were eluted using a binary solvent gradient system where solvent A was 5:5:90 tetrahydrofuran-acetonitrile-(NH4)2HPO4 50 mM, while solvent B was 25:25:50 tetrahydrofuran-acetonitrile-(NH4)2HPO4 50 mM. Solvent flow rate was 0.75 ml/min and the column temperature was ambient. […] Labetalol and metabolites were measured by fluorescence detection using a Jasco model FP920 detector. Excitation and emission wavelengths were 370 nm 418 nm respectively. Retention times for salicylamide internal standard and labetalol were 6.6 min and 15.0 min respectively.

[5] = tested on: UGT enzymes of human liver microsomes; assay: Inhibition of estradiol (E2) glucuronidation in human liver microsomes; format: biochemical; settings: liver 062101, E2 50 μM
Text: (§1) Compounds were eluted using a binary solvent gradient system where solvent A was dilute phosphoric acid (pH 3) and solvent B was 80:20 acetonitrile-methanol. […] Detection was at 280 nm.

[6] = tested on: T3, UGT enzymes of human liver microsomes; assay: as above; format: biochemical; settings: liver 032101, E2 50 μM
T3 construct: residual metabolism (% of control), E2-3-β-D-glucuronide; other: liver 032101; residual metabolism (% of control), E2-3-β-D-glucuronide
Text: as §1

[7] = tested on: UGT enzymes of pooled human jejunum microsomes; assay: Inhibition of estradiol (E2) glucuronidation in pooled human jejunum microsomes; format: biochemical; settings: jejunum HJ61, E2 50 μM
Text: as §1

[8] = tested on: T4, UGT enzymes of human liver microsomes; assay: Inhibition of 2ME2 glucuronidation (MG1, MG2) in human liver microsomes; format: biochemical; settings: liver 062101, 2ME2 50 μM
T4 construct: other: liver 062101
Text: as §1

[9] = tested on: T5, UGT enzymes of human liver microsomes; assay: Inhibition of estradiol (E2) glucuronidation in human liver microsomes; format: biochemical; settings: liver 032101, E2 50 μM
T5 construct: residual metabolism (% of control), E2-17-β-D-glucuronide; other: liver 032101; residual metabolism (% of control), E2-17-β-D-glucuronide
Text: as §1

UGT1A1 = molecular target: T6, UGT1A1 (Homo sapiens, UniProt P22309); assay: Inhibition of raloxifene glucuronidation by recombinant UGT1A1 Supersomes; settings: UGT1A1
T6 sequence (P22309 26-533): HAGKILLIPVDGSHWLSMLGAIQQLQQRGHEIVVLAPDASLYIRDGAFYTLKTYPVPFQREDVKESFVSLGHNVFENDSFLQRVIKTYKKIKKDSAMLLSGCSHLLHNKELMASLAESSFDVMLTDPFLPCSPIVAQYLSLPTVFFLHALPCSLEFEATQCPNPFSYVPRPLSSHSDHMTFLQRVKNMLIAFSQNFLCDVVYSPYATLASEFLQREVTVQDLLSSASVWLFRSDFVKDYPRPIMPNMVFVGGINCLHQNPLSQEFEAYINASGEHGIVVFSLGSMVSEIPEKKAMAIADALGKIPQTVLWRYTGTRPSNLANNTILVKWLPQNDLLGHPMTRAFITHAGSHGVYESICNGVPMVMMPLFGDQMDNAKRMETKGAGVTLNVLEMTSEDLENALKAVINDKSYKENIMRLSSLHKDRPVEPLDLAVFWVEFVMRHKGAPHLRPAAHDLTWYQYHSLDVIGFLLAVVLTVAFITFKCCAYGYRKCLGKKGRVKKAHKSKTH
Procedure: (§2) Compounds were eluted using a binary solvent gradient system. Solvent A was water brought to pH 8 with NH4OH. Solvent B was methanol. Solvent flow rate was 1 ml/min and the column temperature was maintained at 50° C. Detection was at 280 nm. […] The system was then returned to the initial conditions and equilibrated for 3 min.

UGT1A9 = molecular target: T7, UGT1A9 (Homo sapiens, UniProt O60656); assay: Inhibition of raloxifene glucuronidation by recombinant UGT1A9 Supersomes; settings: UGT1A9
T7 sequence (O60656 26-530): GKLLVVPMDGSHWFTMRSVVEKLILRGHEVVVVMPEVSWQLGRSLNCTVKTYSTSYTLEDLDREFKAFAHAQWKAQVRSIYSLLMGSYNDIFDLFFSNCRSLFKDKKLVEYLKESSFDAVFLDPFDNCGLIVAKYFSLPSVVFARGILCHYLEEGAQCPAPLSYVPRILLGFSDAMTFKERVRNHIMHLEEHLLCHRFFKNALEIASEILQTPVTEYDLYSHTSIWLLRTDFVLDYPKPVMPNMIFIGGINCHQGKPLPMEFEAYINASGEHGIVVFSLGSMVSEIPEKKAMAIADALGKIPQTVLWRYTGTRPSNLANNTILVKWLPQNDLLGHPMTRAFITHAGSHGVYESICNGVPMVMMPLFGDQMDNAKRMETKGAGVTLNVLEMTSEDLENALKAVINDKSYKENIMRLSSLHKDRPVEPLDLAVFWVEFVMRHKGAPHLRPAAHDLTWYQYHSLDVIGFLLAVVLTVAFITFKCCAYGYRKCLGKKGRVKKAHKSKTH
Procedure: as §2

percentage of control metabolism, 7-HFC glucuronidation ([1]; inhibitor 100 μM)	% of control metabolism (SD, n = 3), 7-HFC glucuronidation ([1]; inhibitor 100 μM)	percentage of control metabolism, 7-HFC glucuronidation ([1]; inhibitor 200 μM)	% of control metabolism (SD, n = 3), 7-HFC glucuronidation ([1]; inhibitor 200 μM)	percentage of control metabolism, 7-HFC glucuronidation ([1]; inhibitor 500 μM)	% of control metabolism (SD, n = 3), 7-HFC glucuronidation ([1]; inhibitor 500 μM)	% of control metabolism, raloxifene G1 [3]	% of control metabolism, raloxifene G2 [3]	residual metabolism (percentage of control), labetalol LG1 ([4]; inhibitor 100 μM)	residual metabolism (percentage of control), labetalol LG2 ([4]; inhibitor 100 μM)	residual metabolism (% of control), 2ME2 MG1 ([8]; inhibitor 50 μM)	residual metabolism (% of control), 2ME2 MG2 ([8]; inhibitor 50 μM)	residual metabolism (% of control), 2ME2 MG1 ([8]; inhibitor 100 μM)	residual metabolism (% of control), 2ME2 MG2 ([8]; inhibitor 100 μM)	SMILES	residual metabolism (% of control), E2-17-β-D-glucuronide ([9]; inhibitor 50 μM)	further results
77 (2) %	77 (2) %	65 (3) %	65 (3) %	37 (1) % and 38 (0) %	37 (1), % and 38 (0) %	69 (3) %	93 (6) %	80 (6) % and 86 (5) %	70 (4) % and 73 (2) %	63 (2) %	90 (5) %	49 (1) %	91 (1) %	O=C(O)c1cc(-c2ccc(F)cc2F)ccc1O [Diflunisal, reference compound]	–	Vmax of 7-HFC glucuronidation (fit of the experiment with this inhibitor) [2]: 62 ± 4 nmol/min/mg; Km ([2]; read-out: Km of 7-HFC glucuronidation (fit of the experiment with this inhibitor)): 92 ± 9 µM; residual metabolism (percentage of control), labetalol LG1 ([4]; inhibitor 50 μM): 92 (4) %; residual metabolism (percentage of control), labetalol LG2 ([4]; inhibitor 50 μM): 80 (3) %; residual metabolism (% of control), E2-3-β-D-glucuronide ([5]; inhibitor 100 μM): 59 (2), obs %; residual metabolism (% of control), E2-3-β-D-glucuronide ([6]; inhibitor 100 μM): 49 (1), obs %; residual metabolism (% of control), E2-3-β-D-glucuronide ([7]; inhibitor 100 μM): 62 (3), obs %
67 (1) %	67 (1) %	55 (3) %	55 (3) %	10 (1) %	10 (1) %	34 (3) %	40 (3) %	74 (1) %	86 (2) %	33 (1) %	69 (2) %	17 (1) %	58 (1) %	O=C(O[C@@H]1Cc2c(O)cc(O)cc2O[C@@H]1c1ccc(O)c(O)c1)c1cc(O)c(O)c(O)c1 [Epicatechin gallate]	83 (0) %	residual metabolism (% of control), E2-3-β-D-glucuronide ([5]; inhibitor 50 μM): 34 (1) %; residual metabolism (% of control), E2-17-β-D-glucuronide ([5]; inhibitor 50 μM): 67 (1) %; residual metabolism (% of control), E2-3-β-D-glucuronide ([6]; inhibitor 50 μM): 27 (1) %; residual metabolism (% of control), E2-3-β-D-glucuronide ([7]; inhibitor 50 μM): 26 (1) %; residual metabolism (% of control), E2-17-β-D-glucuronide ([7]; inhibitor 50 μM): 61 (4) %; residual metabolism (% of control), 2ME2 MG1 ([8]; inhibitor 25 μM): 47 (1) %; residual metabolism (% of control), 2ME2 MG2 ([8]; inhibitor 25 μM): 79 (2) %

SMILES	percentage of control metabolism, 7-HFC glucuronidation ([1]; inhibitor 100 μM)	% of control metabolism (SD, n = 3), 7-HFC glucuronidation ([1]; inhibitor 100 μM)	percentage of control metabolism, 7-HFC glucuronidation ([1]; inhibitor 200 μM)	% of control metabolism (SD, n = 3), 7-HFC glucuronidation ([1]; inhibitor 200 μM)	percentage of control metabolism, 7-HFC glucuronidation ([1]; inhibitor 500 μM)	% of control metabolism (SD, n = 3), 7-HFC glucuronidation ([1]; inhibitor 500 μM)	% of control metabolism, raloxifene G1 [3]	% of control metabolism, raloxifene G2 [3]	residual metabolism (percentage of control), labetalol LG1 ([4]; inhibitor 100 μM)	residual metabolism (percentage of control), labetalol LG2 ([4]; inhibitor 100 μM)	residual metabolism (% of control), 2ME2 MG1 ([8]; inhibitor 50 μM)	residual metabolism (% of control), 2ME2 MG2 ([8]; inhibitor 50 μM)	residual metabolism (% of control), 2ME2 MG1 ([8]; inhibitor 100 μM)	residual metabolism (% of control), 2ME2 MG2 ([8]; inhibitor 100 μM)	residual metabolism (% of control), E2-17-β-D-glucuronide ([9]; inhibitor 50 μM)	further results
C=CCc1ccc(O)c(OC)c1 [Eugenol]	–	–	–	–	–	63 (1) %	91 (1) %	96 (5) %	82 (2) %	75 (4) %	–	–	–	72 (1) %	obs, 94 (5) %	residual metabolism (% of control), E2-17-β-D-glucuronide ([9]; inhibitor 100 μM): obs, 89 (6) %; inhibition of raloxifene glucuronidation, in words (UGT1A1): ineffective; inhibition of raloxifene glucuronidation, in words (UGT1A9): amongst the best inhibitors
